Laboratory results from patent publication US6500959B1, “Pyrrolidine derivatives and processes for preparing same” (GPI NIL Holdings, Inc., priority 1995, dated 2002).
“Also recorded” adds a separate entry of the source.

What was measured:
[1] = test system: chick dorsal root ganglia; test: Chick dorsal root ganglion cultures and neurite outgrowth; type: cell-based; details: 48 h
Description: (§1) Forty-eight hours later, the number of neurite with a length greater than one DRG explant was quantitated. The number of neurites expressed in untreated DRG's was subtracted from the neurite number of Example 17—treated samples to yield Example 17—dependent specific neurite outgrowth.
as §1, with “form” for “from”, “outgrowth. Quantitative dose-dependent neurite outgrowth elicited by Example 17 is presented.” for “outgrowth.”
Dorsal root ganglia were dissected from chick embryos of ten day gestation. Whole ganglion explants were cultured on thin layer Matrigel-coated 12 well plates with Liebovitz L15 plus high glucose media supplemented with 2 mM glutamine and 10% fetal calf serum, and also containing 10 μM cytosine β-D arabinofuranoside (Ara C) at 37° C. in an environment containing 5% CO2. Twenty-four hours later, the DRGs were treated with various concentrations of nerve growth factor, immunophilin ligands or combinations of NFG plus drugs. Forty-eight hours after drug treatment, the ganglia were visualized under phase contrast or Hoffman Modulation contrast with a Zeiss Axiovert inverted microscope. Photomicrographs of the explants were made, and neurite outgrowth was quantitated. Neurites longer than the DRG diameter were counted as positive, with total number of neurites quantitated per each experimental condition. Three to four DRGs are cultured per well, and each treatment was performed in duplicate.

[2] = test system: dopaminergic neurons; test: MPTP model of Parkinson's Disease in mice; type: in vivo, CD1 mice
Method: FIG. 4 is a graph of [^3H]-CFT binding per μg of Striatal Membrane Protein. […] CD1 mice (25 g) were treated daily with 30 mg/kg MPTP (i.p.) for 5 days. […] After eighteen days, the mice were sacrificed, striata from 5 animals per group were pooled and processed into a washed membrane preparation. Binding of [3H]-CFT to these striated membrane preparations of various groups was quantitated to determine dopamine transporter levels on viable nerve terminals. Binding in the presence of 10 μM unlabelled CFT provided on estimate of nonspecific binding, which as subtracted from the total binding to quantitative specific [3H]-CFT bound. Binding was normalized to the protein content of the striatal membranes from each experimental group. Coronal and saggital brain sections from MPTP and drug treated animals were stained with anti-tyrosine hydroxylase (TH) Ig to quantitate striatal, medial forebrain bundle axonal and nigral levels of TH, which is indicative of functional dopaminergic neurons. […] Binding of [3H]CFT, a radioligand for the dopamine transporter, to the […] membranes was done to quantitate the level of the dopamine transporter (DAT) following lesion and drug treatment. Immunostaining was performed on saggital and coronal brain sections using anti-tyrosine hydoxylase Ig to quantitate survival and recovery of dopaminergic neurons. […]

CCC(C)(C)C(=O)C(=O)N1CCC[C@H]1C(=O)OCCCc1cccnc1 [Example 17, 3-(3-Pyridyl)-1-propyl (2S)-1-(3,3-dimethyl-1,2-dioxopentyl)-2-pyrrolidinecarboxylate]
EC50 ([1]; Gallus gallus, read-out: ED50, neurite outgrowth): 0.05 nM
neurite outgrowth in sensory neuronal cultures ([1]; chick DRG explants, various concentrations): potently promotes neurite outgrowth
recovery of [3H]-CFT binding ([2]; 40 mg/kg s.c. in addition to MPTP, striatal membranes, dopamine transporter level): greater than 90%
recovery of TH-stained dopaminergic neurons (tyrosine hydroxylase immunostaining) ([2]; 10-40 mg/kg s.c., striatum, nigra, medial forebrain bundle, versus MPTP/Vehicle): nearly quantitative recovery; also recorded: clear and marked recovery of functional neurons
